Holding throughout (assay type): cell-based
Data set [1] concerns Tetrachlorella alterns UTEX 2453. In words: Lipid accumulation in algal cells. The following applies: 0.63 μM to 50 μM, FIG. 11A-11C. Here is the method: (§1) Compounds 1, 62, and 136 were assayed in algal species Chlamydomonas reinhardtii CC125, Chlorella sorokiniana UTEX 1230, Chlorella vulgaris UTEX 395, and Tetrachlorella alterns UTEX 2453 at concentrations ranging from 0.63 μM to 50 μM.

The test system of data set [2] is Chlorella vulgaris UTEX 395. In words: Lipid accumulation in algal cells. The following applies: 0.63 μM to 50 μM, FIG. 11A-11C. Here is the method:
as §1

The subject of data set [3] is Chlamydomonas reinhardtii CC125. In words: Lipid accumulation in algal cells. The following applies: 0.63 μM to 50 μM, FIG. 11A-11C. The procedure: as §1
Data set [4] has as its system Chlorella sorokiniana UTEX 1230. In words: Lipid accumulation in algal cells. Particulars: 0.63 μM to 50 μM, FIG. 11A-11C. Here is the method:
as §1

The test system of data set [5] is Chlamydomonas reinhardtii cells. Briefly: Fatty acid assay. The following applies: 30 μM, FIG. 5.
For data set [6] the test system is unchanged. Briefly: Triglyceride assay. Particulars: 5 μM, FIG. 6.
Data set [7] has the same test system. In words: Cellular chlorophyll and carotenoid levels. The following applies: 30 μM, FIG. 7.
The test system is the same in data set [8]. Briefly: Total protein levels in cells. Particulars: FIG. 10.
The test system is the same in data set [9]. In words: Cellular carbohydrate levels. The following applies: 30 μM, FIG. 9.
For data set [10] the test system is unchanged. In words: Levels of proteins required for photosynthesis. The following applies: Rubisco large and small sub unit, PSa D, PSb A, phosphoribulokinase, histone; FIG. 8.
The test system is the same in data set [11]. In words: Microscopy of treated cells (organelles, lipid droplets). Particulars: FIG. 1. The procedure: The screening library included 43,736 compounds (ChemBridge, Corp). […] A sub-set of compounds were retested using an 8-point dose response assay (0.25-30 μM). Compounds were further assessed visually using a Nikon Ti-inverted microscope (60×) to reconfirm lipid droplet accumulation was induced.

Data set [12] shares this test system. Briefly: Lipid accumulation using lipophilic dye Nile Red. Particulars: for lipid accumulation: 0.5 μM to 15.0 μM, FIG. 3; for lipid accumulation over 72 hours: 30 μM test compound, FIG. 4. Here is the method: […] At the indicated times 200 μL cells were removed from each well and optical density and nile red fluorescence were measured.
Lipid accumulation over a period of 72 hours was also measured (30 μM test compound) using lipophilic dye Nile Red, as shown in FIG. 4. […] FIGS. 12A-12C show representative images of C. reinhardtii cultures that were treated with 10 μM of representative test compounds of Formula Ia, Formula IIa, and Formula IIIa. The corresponding lipid accumulation was visualized using confocal microscopy after 72 hours in culture.

`COc1ccc(CCN(C)Cc2ccc([N+](=O)[O-])cc2)cc1OC` [Compound 1, 2-(3,4-dimethoxyphenyl)-N-methyl-N-(4-nitrobenzyl)ethan-1-amine]: the lipid accumulation entry is listed as “stimulated lipid accumulation” in data set [1]; “stimulated lipid accumulation” in data set [2]; “stimulated lipid accumulation” in [3]; “stimulated lipid accumulation” in data set [4]; “increased lipid accumulation” in data set [12]. For the same compound, the fatty acid levels result in [5] is listed as “increased fatty acid levels”. In addition, the triacylglyercol levels entry in data set [6] is listed as “increased triacylglyercol levels”. Besides, the carotenoid levels entry in [7] was “did not significantly alter”. In data set [7], the “levels of chlorophyll A (Chl A)” value is “did not significantly alter”. The “levels of chlorophyll B (Chl B)” value in [7] is listed as “did not significantly alter”. Also, the total protein levels result in [8] is listed as “None of the test compounds significantly affected”. Further, the carbohydrate levels entry in data set [9] is “increased carbohydrate levels”. Also, the “levels of proteins required for photosynthesis” value (shortened to “levels of proteins required”) in data set [10] was “did not significantly affect”. Also, the “disruption of major organelles including nucleus, endoplasmic reticulum, and chloroplast” value (shortened to “disruption”) in [11] was “does not disrupt major organelles”. In data set [12], the “lipid accumulation over 72 hours” value is recorded as “increased lipid accumulation”.

As to `COc1ccccc1N1CCN(Cc2ccc(O)cc2)CC1` [Compound 62, 4-((4-(2-methoxyphenyl)piperazin-1-yl)methyl)phenol], the lipid accumulation result was “stimulated lipid accumulation” in [1]; “stimulated lipid accumulation” in [2]; “stimulated lipid accumulation” in data set [3]; “stimulated lipid accumulation” in [4]; “increased lipid accumulation” in data set [12]. Moreover, in [5], the fatty acid levels entry is recorded as “increased fatty acid levels”. In addition, the triacylglyercol levels result in data set [6] is recorded as “increased triacylglyercol levels”. The carotenoid levels result in data set [7] is “did not significantly alter”. In [7], the “levels of chlorophyll A (Chl A)” value is “did not significantly alter”. In addition, in data set [7], the “levels of chlorophyll B (Chl B)” value is “did not significantly alter”. Further, the total protein levels entry in [8] is recorded as “None of the test compounds significantly affected”. In addition, the carbohydrate levels result in data set [9] was “increased carbohydrate levels”. For the same compound, in data set [10], the “levels of proteins required” value is recorded as “minor effects”. The “disruption” value in data set [11] is “does not disrupt major organelles”. Besides, the “lipid accumulation over 72 hours” value in [12] is on record as “increased lipid accumulation”.

Turning to `CN(CCC#N)C12CC3CC(CC(C3)C1)C2` [Compound 136, 3-(adamantan-1-yl(methyl)amino)propanenitrile], the lipid accumulation result is reported as “stimulated lipid accumulation” in data set [1]; “stimulated lipid accumulation” in data set [2]; “stimulated lipid accumulation” in data set [3]; “stimulated lipid accumulation” in data set [4]; “increased lipid accumulation” in data set [12]. In [5], the fatty acid levels result was “increased fatty acid levels”. Moreover, the triacylglyercol levels entry in data set [6] is listed as “increased triacylglyercol levels”. Further, the carotenoid levels result in data set [7] is reported as “did not significantly alter”. Further, the “levels of chlorophyll A (Chl A)” value in [7] was “did not significantly alter”. Moreover, in data set [7], the “levels of chlorophyll B (Chl B)” value was “did not significantly alter”. In addition, the total protein levels entry in data set [8] is on record as “None of the test compounds significantly affected”. For the same compound, the carbohydrate levels result in data set [9] is given as “increased carbohydrate levels”. For the same compound, the “levels of proteins required” value in data set [10] is recorded as “did not significantly affect”. Besides, in data set [11], the “disruption” value was “does not disrupt major organelles”. For the same compound, the “lipid accumulation over 72 hours” value in [12] is listed as “increased lipid accumulation”.

The values above are taken from patent US10351883B2, “Compounds for increasing lipid synthesis and storage” (NUtech Ventures, priority 2015, dated 2019).
